# Assay results as given in paper PMC8537711, “Mechanistic Insights into Binding of Ligands with Thiazolidinedione Warhead to Human Histone Deacetylase 4” (Pharmaceuticals, 2021).
# Columns and labels:
# cdHDAC4wt [1] = target: T1, cdHDAC4wt (Homo sapiens, UniProt P56524); test: Reversibility assay via rapid dilution; residence time from reversibility data; type: biochemical; conditions: first order dissociation assumed; read-out: RT (RD), residence time from rapid dilution
# T1 construct: consists of 410 amino acids (human HDAC4 T648-T1057) and has a molecular weight of 44.2 kDa; His6-SUMO (cleaved yes); made in house; host or cells: E. coli (BL21) DE3 pLysS, pET14b vector
# T1 sequence (P56524 648-1057): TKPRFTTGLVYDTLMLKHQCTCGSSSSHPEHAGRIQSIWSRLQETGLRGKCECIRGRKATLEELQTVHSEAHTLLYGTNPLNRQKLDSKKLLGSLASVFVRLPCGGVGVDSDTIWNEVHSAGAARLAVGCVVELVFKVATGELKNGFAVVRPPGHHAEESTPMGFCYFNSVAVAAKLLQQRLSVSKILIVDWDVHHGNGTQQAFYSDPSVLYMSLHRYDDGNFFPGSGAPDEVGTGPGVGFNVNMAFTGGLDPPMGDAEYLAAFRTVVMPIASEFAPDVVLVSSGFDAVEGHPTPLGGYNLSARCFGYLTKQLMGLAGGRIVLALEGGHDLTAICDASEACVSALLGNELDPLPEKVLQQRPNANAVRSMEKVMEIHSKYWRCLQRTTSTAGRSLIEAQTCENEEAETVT
# Method: Rapid dilution was performed by diluting the incubated mixture 100-fold with substrate (Boc-Lys{TFA}-7-Amino-4-methylcoumarin (Bachem, Bubendorf, Switzerland)) with the final substrate concentration being 20 µM. […] A positive control without TZD ligand and a blank without enzyme and TZD ligand were also carried out. […] Once again the final substrate concentration was 20 µM. […] The deacetylated substrate was converted into a fluorescent product by the addition of 0.4 mg/mL trypsin (AppliChem, Darmstadt, Germany). The release of fluorogenic substrate was followed in a microplate reader (PherStar Plus, BMG Labtech, Ortenberg, Germany) at 450 nm (λEx = 350 nm) and correlated the positive control. […] All incubations steps were performed for 60 min at 30 °C and 450 rpm. The substrate was preheated to 30 °C before the rapid dilution step.
# The reciprocal values for k equals the residence time of the respective TZD ligand (residence time = koff^−1), which can be compared with the residence times gained from association data.
# cdHDAC4wt [2] = target: T1, cdHDAC4wt; test: Association kinetics (semi continuous enzyme activity assay, kobs vs inhibitor concentration); type: biochemical; conditions: for residence time: 1/koff (two step) or 1/k−3 (one step), read-out: RT (KF), residence time from kinetic fit; for forward isomerization rate constant (k2) / koff / kon: two step model; for forward isomerization rate constant (k2) / koff: isomerization rate; for koff: y-axis intercept; for Ki: two step induced fit model, read-out: K1 (equilibrium constant of initial encounter complex)
# Method: A serial dilution of inhibitor beginning at 10-fold of respective IC50-value in assay buffer (25 mM Tris-HCl, pH 8.0, 75 mM KCl, 0.001% Pluronic F-127) was made in a black 96-well microtiter half-area plate (Greiner, Kremsmuenster, Austria). The dilutions were added to 3 nM cdHDAC4wt. Shortly after, the reaction was initiated by adding 20 µM Boc-Lys{TFA}-7-Amino-4-methylcoumarin (Bachem, Bubendorf, Switzerland) as substrate. […] Finally 0.4 mg/mL trypsin was added to split the deacetylated substrate in the fluorescent product which was measured at 450 nm (λEx = 350 nm) (PherStar Plus, BMG Labtech, Ortenberg, Germany). […] The standardized RFUs were plotted against the incubation time. […] Due to this knowledge the data were fitted via non linear regression with GraphPad Prism program to the following equation by Copeland [27]:(2) Y=νs·t+νi−νs/kobs·(1−e^(−kobs·t))+d where vi is the initial slope, vs is the second lower slope, kobs is the respective rate constant, t is time and d the correction for possible data offset.
# Afterwards kobs values were plotted against their respective inhibitor concentration.
# cdHDAC4wt [3] = target: T1, cdHDAC4wt; test: Michaelis Menten kinetics for mode of action; type: biochemical; conditions: increasing Km, essentially unchanged vmax with increasing compound concentration
# Method: For E677A, F812A, C813S, F871A and H976Y (GoF) 5 nM enzyme were used. […] Signal was developed for 30 min at room temperature and the fluorescence was measured at 450 nm (λEx = 350 nm) in a PherStar Plus (BMG Labtech, Ortenberg, Germany) fluorescence plate reader. […] Afterwards, the product concentration was plotted against the time and v0 (µM/min) was calculated from the resulting slopes. Now the initial velocity was plotted against the substrate concentration and Km was calculated using a Michaelis Menten-Fit in GraphPad Prism. The value of vmax is neglected because enzyme concentration and purity are too inconsistent between the mutant variant to calculate this value appropriate.
# [4] = target: T2, cdHDAC4wt (catalytic domain of human wild type histone deacetylase 4) (Homo sapiens, UniProt P56524); test: IC50 determination, enzyme activity assay with Boc-Lys{TFA}-AMC; type: biochemical; conditions: mean ± SD, N = 3
# T2 construct: consists of 410 amino acids (human HDAC4 T648-T1057) and has a molecular weight of 44.2 kDa; His6-SUMO (cleaved yes); made in house; host or cells: E. coli (BL21) DE3 pLysS, pET14b vector
# T2 sequence (P56524 648-1057): as above
# Method: Afterwards the enzymatic reaction was initiated by the addition of 20 µM Boc-Lys{TFA}-7-Amino-4-methylcoumarin (Bachem, Bubendorf, Switzerland) as substrate. […] The deacetylated substrate was converted into a fluorescent product by the addition of 0.4 mg/mL trypsin (AppliChem, Darmstadt, Germany). The release of fluorogenic substrate was followed in a microplate reader (PherStar Plus, BMG Labtech, Ortenberg, Germany) at 450 nm (λEx = 350 nm) and correlated to enzyme activity.
# All incubations steps were performed for 60 min at 30 °C and 450 rpm.
# cdHDAC4 mutant variants = test: Mutational study: Ki (Cheng-Prusoff from IC50) against cdHDAC4 mutant variants relative to wild type; type: biochemical, human; conditions: exchange of S758, D759, E764, T808, F812, F871 and L943
# Method: To gain an thorough knowledge of the most involved amino acids necessary for molecular recognition of TZD ligands to cdHDAC4wt, a comprehensive mutational study was designed. Amino acids flanking the active site binding pocket in the closed (Figure 5A) and open (Figure 5B) conformation of the enzyme were systematically exchanged and IC50-values of a subset of 25 TZDs were determined against every mutant variant. Because IC50-values depends on the substrate concentration and the Km of the substrate, the Michaelis Menten parameters were determined first using substrate tert-butyl N-[(2S)-1-[(4-methyl-2-oxochromen-7-yl)amino]-1-oxo-6-[(2,2,2-trifluoroacetyl)amino]hexan-2-yl]carbamate (Boc-Lys{TFA}-AMC) in a semi continuous enzyme activity assay (Figure 5C and Figure S1). IC50-values were transformed into binding constant Ki using the Cheng-Prusoff equation to enable a fair comparison of ligand affinities to the respective HDAC4 variant:(1) IC50=(1+[S]/Km)×Ki
# A serial dilution of TZD in assay buffer (25 mM TRIS-HCl, 75 mM KCl, 0.001% Pluronic F-127, pH 8.0) was incubated with 1 nM cdHDAC4wt in a black 96-well microtiter plate (Greiner). […] The release of fluorogenic substrate was followed in a microplate reader (PherStar Plus, BMG Labtech, Ortenberg, Germany) at 450 nm (λEx = 350 nm) and correlated to enzyme activity. […]
Structure (SMILES),residence time (cdHDAC4wt [1]),residence time (cdHDAC4wt [2]),"y-intercept of kobs plot (k−3) (cdHDAC4wt [2]; linear regression, one step model)","k3 (cdHDAC4wt [2]; one step model, slope of kobs vs ligand concentration)","k−3 (cdHDAC4wt [2]; one step model, y-intercept)",mode of inhibition (cdHDAC4wt [3]),forward isomerization rate constant (k2) (cdHDAC4wt [2]),koff (cdHDAC4wt [2]),Ki (cdHDAC4wt [2]),IC50 [4],kon (cdHDAC4wt [2]),log10Ki ratio (Ki mutant / Ki wildtype) (cdHDAC4 mutant variants)
O=C(COc1ccc(/C=C2\SC(=O)NC2=O)cn1)Nc1nc2ccccc2s1 [5w],12 ± 3 min,19 ± 7 min,(8 ± 3) × 10^−4 s^−1,1900 ± 100 M⁻¹ s⁻¹,0.08 ± 0.03 s^−1 (×10^−2),competitive inhibitor,–,–,–,–,–,–
O=C1NC(=O)/C(=C/c2ccc3cc(OCC(=O)N4N=C(c5ccccc5)CC4c4ccccc4F)ccc3c2)S1 (stereo not shown) [8b],29 ± 3 min,11 ± 3 min,–,–,–,–,0.003 ± 0.0006 s⁻¹,0.0015 ± 0.0004 s⁻¹,650 ± 470 nM,330 ± 20 nM,–,–
O=C1NC(=O)/C(=C/c2ccc3cc(OCC(=O)N4N=C(c5ccccc5)CC4c4ccco4)ccc3c2)S1 (stereo not shown) [8c],12 ± 1 min,12 ± 6 min,–,–,–,–,0.0021 ± 0.0009 s⁻¹,0.0014 ± 0.0007 s⁻¹,–,1200 ± 100 nM,(2.1 ± 0.9) × 10^−3 s^−1,–
Cc1ccc(C2CC(c3ccccc3)=NN2C(=O)COc2ccc3cc(/C=C4\SC(=O)NC4=O)ccc3c2)cc1 (stereo not shown) [8g],18 ± 7 min,10 ± 2 min,–,–,–,–,0.0038 ± 0.0007 s⁻¹,0.0016 ± 0.0003 s⁻¹,3000 ± 2000 nM,760 ± 80 nM,–,–
O=C1NC(=O)/C(=C/c2ccc(OCC(=O)N3N=C(c4ccc(F)cc4)CC3c3ccc(Cl)c(Cl)c3)cc2)S1 (stereo not shown) [12j],11 ± 5 min,9 ± 3 min,–,–,–,–,0.0031 ± 0.0007 s⁻¹,0.0018 ± 0.0005 s⁻¹,–,830 ± 20 nM,–,–
"CC(/C=C/C(=O)NO)=C\[C@@H](C)C(=O)c1ccc(N(C)C)cc1 [TSA, Trichostatin A]",–,–,–,–,–,–,–,–,–,–,–,above 1

# Further lines, with some results ahead:
residence time (cdHDAC4wt [1]),residence time (cdHDAC4wt [2]),"y-intercept of kobs plot (k−3) (cdHDAC4wt [2]; linear regression, one step model)","k3 (cdHDAC4wt [2]; one step model, slope of kobs vs ligand concentration)","k−3 (cdHDAC4wt [2]; one step model, y-intercept)",mode of inhibition (cdHDAC4wt [3]),forward isomerization rate constant (k2) (cdHDAC4wt [2]),koff (cdHDAC4wt [2]),Ki (cdHDAC4wt [2]),IC50 [4],kon (cdHDAC4wt [2]),Structure (SMILES),log10Ki ratio (Ki mutant / Ki wildtype) (cdHDAC4 mutant variants)
13 ± 8 min,14 ± 4 min,–,–,–,–,0.0054 ± 0.0005 s⁻¹,0.0012 ± 0.0003 s⁻¹,650 ± 310 nM,340 ± 40 nM,(5.4 ± 0.5) × 10^−3 s^−1,O=C1NC(=O)/C(=C/c2ccc3cc(OCC(=O)N4N=C(c5ccccc5)CC4c4cccs4)ccc3c2)S1 (stereo not shown) [8i],–
21 ± 7 min,–,–,–,–,–,0.0035 ± 0.0018 s⁻¹,–,–,1400 ± 200 nM,–,O=C1NC(=O)/C(=C/c2ccc3cc(OCC(=O)N4N=C(c5ccc(F)cc5)CC4c4ccco4)ccc3c2)S1 (stereo not shown) [16c],–
15 ± 2 min,–,–,–,–,–,0.0051 ± 0.0011 s⁻¹,–,–,460 ± 60 nM,–,Cc1ccc(C2CC(c3ccc(F)cc3)=NN2C(=O)COc2ccc3cc(/C=C4\SC(=O)NC4=O)ccc3c2)cc1 (stereo not shown) [16g],–
